According to ChEMBL document CHEMBL1126797 (J Med Chem, 1993):

Legend:
[1] = molecular target: T1, DNA topoisomerase 1 (Homo sapiens, UniProt P11387); assay: Inhibition of Topoisomerase I by cleavage complex formation in human HL-60 cells; type: cell-based
T1 sequence (P11387 whole entry): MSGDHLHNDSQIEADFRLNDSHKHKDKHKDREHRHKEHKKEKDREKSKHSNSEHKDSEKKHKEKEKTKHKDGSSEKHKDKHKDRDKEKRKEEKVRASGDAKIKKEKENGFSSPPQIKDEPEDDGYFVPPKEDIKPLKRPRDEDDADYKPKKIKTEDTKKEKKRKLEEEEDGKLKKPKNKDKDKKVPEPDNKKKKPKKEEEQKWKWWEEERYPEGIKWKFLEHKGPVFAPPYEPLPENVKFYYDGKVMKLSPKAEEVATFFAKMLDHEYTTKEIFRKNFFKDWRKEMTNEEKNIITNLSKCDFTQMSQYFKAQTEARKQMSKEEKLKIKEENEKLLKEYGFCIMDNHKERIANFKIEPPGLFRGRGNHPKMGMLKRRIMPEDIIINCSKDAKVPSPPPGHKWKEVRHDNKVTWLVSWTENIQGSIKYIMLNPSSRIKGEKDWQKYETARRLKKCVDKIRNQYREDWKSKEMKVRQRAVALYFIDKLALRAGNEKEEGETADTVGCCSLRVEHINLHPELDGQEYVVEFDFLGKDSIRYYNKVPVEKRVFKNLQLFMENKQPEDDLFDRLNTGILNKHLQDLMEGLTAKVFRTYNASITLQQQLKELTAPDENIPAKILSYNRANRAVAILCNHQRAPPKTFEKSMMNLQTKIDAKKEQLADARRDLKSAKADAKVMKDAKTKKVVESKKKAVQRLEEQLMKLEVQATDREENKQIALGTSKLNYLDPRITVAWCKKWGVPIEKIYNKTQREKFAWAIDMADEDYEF

[2] = test system: L1210; assay: Log of initial tumor cell population minus log of tumor cell population at end of treatment in L1210 lymphoid leukemic mice; type: functional, Mus musculus
[3] = organism: Mus musculus; assay: Toxic dose in L1210 lymphoid leukemic mice; type: toxicity, organism-based; conditions: in vivo
[4] = test system: Mus musculus; assay: Highest active dose in L1210 lymphoid leukemic mice at dose range of 2.37-8 mg/kg; type: functional
[5] = organism: Mus musculus; assay: Number of L1210 lymphoid leukemic mice cured out of […]; type: functional
[6] = organism: Mus musculus; assay: Percent median survival time of treated leukemic mice compared to control; type: functional
[7] = test system: HT-29; assay: Tumor volume in HT-29 cells after subcutaneous administration on days 16,20,23,27,30,34,37,41,44,48 at dose of 4 mg/kg; type: functional, Homo sapiens
[8] = Number of metastases in K1735-M2 murine melanoma after subcutaneous administration on days1,4,6,8 at dose of 4 mg/kg; type: functional, Mus musculus
[9] = test system: Mus musculus; assay: Relative survival in RAW117-H10 cells implanted mice in comparison to control at dose of 4 mg/kg; type: functional
[10] = test system: Mus musculus; assay: Relative survival as percent of control survival time in L1210 murine lymphoid leukemic mice after sc administration on days1,4,6,8 at dose of 4 mg/kg; type: functional; conditions: route subcutaneous
[11] = test system: HT-29; assay: Tumor volume in HT-29 cells after subcutaneous administration on days 16,20,23,27,30,34,37,41,44,48 at dose of 3 mg/kg; type: functional, Homo sapiens
[12] = Number of metastases in K1735-M2 murine melanoma cells after subcutaneous administration on days1,4,6,8 at dose of 3 mg/kg; type: functional, Mus musculus
[13] = test system: Mus musculus; assay: Relative survival in L1210 lymphoid leukemic mice after subcutaneous administration on days 1,4,6,8 at dose of 3 mg/kg; type: functional
[14] = test system: Mus musculus; assay: Relative survival in RAW117-H10 cells implanted mice in comparison to control at dose of 3 mg/kg; type: functional

SMILES	IC50 [1] [nM]	also measured
CC[C@@]1(O)C(=O)OCc2c1cc1n(c2=O)Cc2cc3cc(C#N)ccc3nc2-1	1900	–
CC[C@@]1(O)C(=O)OCc2c1cc1n(c2=O)Cc2cc3c(C)cccc3nc2-1	38	KE [2]: 5.6; Toxic dose [3]: 12 mg/kg; Highest active dose [4]: 8 mg/kg; Cures [5]: 4; T/C [6]: 274%
CC[C@@](O)(C(=O)O)c1cc2n(c(=O)c1CO)Cc1cc3ccccc3nc1-2	12000	–
CC[C@@](O)(C(=O)[O-])c1cc2n(c(=O)c1CO)Cc1cc3cc4c(cc3nc1-2)OCO4.[Na+]	840	Control [7]: 40%; Control [8]: 15%; T/C [9]: 1.36; T/C [10]: 2.13
CC[C@@]1(O)C(=O)OCc2c1cc1n(c2=O)Cc2cc3c([N+](=O)[O-])c4c(cc3nc2-1)OCO4	150	–
CC[C@@]1(O)C(=O)OCc2c1cc1n(c2=O)Cc2cc3cc(C)ccc3nc2-1	300	–
CC[C@@]1(O)C(=O)OCc2c1cc1n(c2=O)Cc2cc3cc(Cl)ccc3nc2-1	140	–
CC[C@@]1(O)C(=O)OCc2c1cc1n(c2=O)Cc2cc3cc([N+](=O)[O-])ccc3nc2-1	640	–
CC[C@@]1(O)C(=O)OCc2c1cc1n(c2=O)Cc2cc3cc4c(cc3nc2-1)OCO4	–	Control [11]: 18%; Control [12]: 9%; T/C [13]: 1.49; T/C [14]: 1.33
CCC1(O)C(=O)OCc2c1cc1n(c2=O)Cc2cc3cc(F)ccc3nc2-1 (configuration not stated)	370	–
CC[C@](O)(C(=O)O)c1cc2n(c(=O)c1CO)Cc1cc3c(N)c4c(cc3nc1-2)OCO4	> 30000	–
CC[C@]1(O)C(=O)OCc2c1cc1n(c2=O)Cc2cc3c(N)c4c(cc3nc2-1)OCO4	> 30000	–
CCC1(O)C(=O)OCc2c1cc1n(c2=O)Cc2cc3c(CN4CC4)c(O)ccc3nc2-1 (configuration not stated)	1100	–
CC[C@@]1(O)C(=O)OCc2c1cc1n(c2=O)Cc2cc3c(O)cccc3nc2-1	870	–
CCC1(O)C(=O)OCc2c1cc1n(c2=O)Cc2cc3cc(OC(=O)N4CCC(N5CCCCC5)CC4)ccc3nc2-1 (configuration not stated)	21000	–
CCC1(O)C(=O)OCc2c1cc1n(c2=O)Cc2cc3c(Cl)c(Cl)ccc3nc2-1 (configuration not stated)	110	–
CCC1(O)C(=O)OCc2c1cc1n(c2=O)Cc2cc3c(F)cccc3nc2-1 (configuration not stated)	160	–
CCC1(O)C(=O)OCc2c1cc1n(c2=O)Cc2cc3c(Cl)c4c(cc3nc2-1)OCO4 (configuration not stated)	61	–
CCC1(O)C(=O)OCc2c1cc1n(c2=O)Cc2cc3cc(Br)ccc3nc2-1 (configuration not stated)	130	–
CCC1(O)C(=O)OCc2c1cc1n(c2=O)Cc2cc3cc(OC(=O)N4CCN(C)CC4)ccc3nc2-1 (configuration not stated)	4400	–
